From patent publication US20060194740A1, “NOD1 as an anti-tumor agent” (priority 2005, published 2006)
Starred links: 1 amine or outer side, 2 acyl side, 3 side chain; linkers in the order of their positions; H or OH if unused. Non-standard residues stand in square brackets, D forms with d. Residues, ends and D or L forms follow the SMILES beside them. No end group written: not given here. *: point of attachment. mesoDAP = meso-diaminopimelic acid, O=C(O)[C@@H](CCC[C@H](N[*:1])C(=O)[*:2])N[*:3]; Diaminopimelic acid = diaminopimelic acid; Cbz = O=C(OCc1ccccc1)*; CH2F = FC*

Key:
MCF-7 Nod2 cells [1] = assay: Propidium iodide apoptosis assay, MCF-7 Nod2 cells; type: cell-based, human; details: MDP plus CHX, 48 h (FIG. 5A)
Method: (§1) Cell viability assays. Propidium iodide exclusion assay: Cells were stimulated as indicated for 2 days. Subsequently, cells were harvested, washed twice in FACS buffer (PBS containing 1% FCS and 0.1% NaN3) and resuspended in propidium iodide (PI)—containing FACS buffer (4 ug/ml). The extent of cell death was analyzed with a FACSCalibur flow cytometer (Becton Dickinson, Mountain View, Calif.). DAPI staining: MCF-7 cells were plated in chamber slides, and stimulated for 2 days. Cells were washed with PBS and apoptotic nuclei were stained with 1 μg/ml DAPI (Sigma Chemical Co., St. Louis, Mo.). Cells were fixed in 4% paraformaldehyde and examined by fluorescence microscopy.
(§2) Experiments were also performed to ascertain whether activation of Nod2 by its specific activator, muramyl dipeptide (MDP), would initiate apoptosis in parental MCF-7 cells or in MCF-7 cells over-expressing Nod2 (MCF-7 Nod2). Thus, γTriDAP or MDP were added to each of these lines and apoptosis (FIG. 5A) and IL-8 production (FIG. 5C) were measured. […] Expression of Nod1 and Nod2 in MCF-7 stable transfectants was confirmed by immunoblotting (FIG. 5B).

MCF-7 Nod2 cells [2] = assay: IL-8 secretion ELISA, MCF-7 Nod2 cells; type: cell-based, human; details: 24 h (FIG. 5C)
Method: IL-8 ELISA. Concentrations of IL-8 in the culture supernatants of transfected HeLa cells were measured by ELISA using 96-well Immunlon plates (Dynatech Laboratories, Chantilly, Va.). ELISA was performed using the mAb MAB208 for capture and a biotinylated polyclonal rabbit anti-human IL-8 Ab (R&D Systems, Minneapolis, Minn.) followed by streptavidin HRP for detection.
as §2

MCF-7 RIP2 KD cells = assay: Propidium iodide apoptosis assay, MCF-7 RIP2 KD cells; type: cell-based, human; details: cells expressing RIP2 KD; 20 μg/ml, CHX, 48 hr (FIG. 13A)
Method: as §1
Several RIP2 mutants were stably expressed in MCF-7 cells to evaluate the role of the RIP2 kinase activity in γTriDAP-induced apoptosis. Expression of RIP2 lacking its CARD domain completely abrogated Nod1-induced cell death (FIG. 7A). […] Cells expressing wild type RIP2 and RIP2 KD constructs were sensitive to lower concentrations of γTriDAP and died faster than cells expressing only Nod1 (FIG. 13C) or than parental MCF-7Blasto cells (data not shown).

MCF-7 Nod1 cells = assay: Propidium iodide exclusion cell death assay, MCF-7 Nod1 cells over-expressing Nod1; type: cell-based, human; details: for effect on γTriDAP-induced cell death: caspase inhibitor 50 uM, 30 min before γTriDAP/CHX for 48 h (FIG. 2D); for effect on γTriDAP-induced apoptosis: inhibitor 100 uM, 30 min prior to γTriDAP/CHX for 48 h (FIG. 6A)
Method: as §1
(§3) To further investigate the role of Nod1 in apoptosis, a variety of cell types were incubated with the Nod1 ligand, […] (γTriDAP), which specifically activates Nod1. The cell types tested included the parental MCF-7 cell line, the Nod1-deficient MCF-7C20 clone, and a cell line engineered to contain an additional human Nod1 allele (MCF-7Nod1) so that Nod1 was over-expressed. To determine whether the resistance of C20 cells to γTriDAP-induced apoptosis resulted from the absence of Nod1, human Nod1 was stably expressed in MCF-7 C20 cells to produce Nod1-sufficient C20 cells (C20/Nod1). As another control, the parental MCF-7 cell line was transfected with an empty retroviral vector to generate MCF-7 Blasto cells. Cells were treated with γTriDAP in the presence or absence of cycloheximide (CHX) and cell death was then determined by propidium iodide staining and flow cytometry.

MCF-7 cells = assay: Propidium iodide exclusion cell death assay, wild-type (parental/Blasto) MCF-7 cells; type: cell-based, human; details: for sensitivity to cell death: parental versus C20 cells (data not shown)
Method: as §1, §3

MCF-7 C20 cells [3] = assay: 3H-thymidine proliferation assay, MCF-7 C20 cells; type: cell-based, human; details: tamoxifen added in the culture medium (data not shown)
Method: Retroviral transfections. The various genes used in this study were cloned into pMSCV-Blasto, pBabe-Puro or pBabe-Neo retroviral vectors. MCF-7 cells were stably transfected using available procedures. Briefly, amphotropic 293 cells were transfected with retroviral vectors encoding selected Nod1, Nod2 and other proteins. Twenty-four hours post-transfection, cells were incubated at 32° C. overnight to produce viral particles. Target cells were infected the next day with virus-containing 293 cell supernatants containing recombinant retroviral particles. Cells were selected with 10 μg/ml blasticidin S (Calbiochem EMD Biosciences Inc., San Diego, Calif.), 500 μg/ml […] (Invitrogen, Carlsbad, Calif.) or 5 μg/ml puromycin (Calbiochem). The expression of all constructs was confirmed by Western blot analysis. To determine the effects of 17β-estradiol (Calbiochem), cells were cultured in phenol red-free DMEM supplemented with […]. Cells were seeded in 96 well plates with various concentration of 17β-estradiol (E2) for 24 h and pulsed with ^3H-thymidine (1 μCi/well, MP Biomedicals, Irvine, Calif.). Cells were harvested on glass fiber filters and radioactivity measured by liquid scintillation. […]

MCF-7 C20 cells [4] = assay: Propidium iodide exclusion cell death assay, Nod1-deficient MCF-7 C20 cells; type: cell-based, human
Method: as §1, with “Propidium iodide exclusion assay: Cells were stimulated as indicated for 2 days.” left out
as §3

MCF-7 C20/Nod1 cells = assay: Propidium iodide exclusion apoptosis assay, MCF-7 C20/Nod1 cells; type: cell-based, human; details: γTriDAP/CHX (FIG. 12A)
Method: as §1, §3
To determine whether the presence of estrogens modulates Nod1-induced apoptotic pathway, cells were cultured in medium containing charcoal-treated serum.

[5] = test system: poly(ADP-ribose)polymerase (PARP) and capases 6, 7, 8 and 9; assay: Western blot of PARP and caspase cleavage in MCF-7 cells; type: cell-based, human; details: 24 h (FIG. 3)
Method: (§4) Western blot analysis and immunoprecipitation. Cells were washed extensively and lysed using lysis buffer containing 50 mM Hepes, 100 mM NaCl, 2 mM EDTA, 10% glycerol, 1% Nonidet P-40, 14 μM pepstatin A, 100 uM leupeptin, 3 mM benzamidine, 1 mM PMSF, 1 mM sodium pyrophosphate, 10 mM sodium orthovanadate, 100 U/ml aprotinin, and 100 mM sodium fluoride. After incubation for 30 min on ice, cell lysates were centrifuged (14000 rpm, 10 min, 4° C.) and the supernatants were recovered. For immunoprecipitation, cell lysates were mixed with 5 μg of antibody for 3 hour at 4° C. under constant agitation. Immune complexes were allowed to bind to 20 μl protein A-Sepharose beads overnight, beads were washed three times with lysis buffer. Immunoprecipitates were separated on SDS-PAGE and transferred to PVDF membranes.
Further confirmation that γTriDAP induces apoptosis was obtained using two broad spectrum caspase inhibitors, z-VAD-FMK and Boc-D-FMK. Both z-VAD-FMK and Boc-D-FMK abrogated γTriDAP-induced cell death (FIG. 2D).

JNK = JNK phosphorylation in MCF-7 RIP2 transfectants; type: cell-based, human; details: γTriDAP with cycloheximide for 2 h in wild type RIP2 or RIP2 KD cells (FIG. 7C)
Method: as §4
The effect of RIP2 expression on γTriDAP-induced JNK phosphorylation was also examined (FIG. 7C).

MCF-7C20 cells = assay: IL-8 production, MCF-7C20 cells; type: cell-based, human; details: MCF-7C20 cells (data not shown)
MCF7-C20Nod1 cells = assay: IL-8 production, MCF7-C20Nod1 cells; type: cell-based, human; details: wild-type Nod1 expressed in MCF7-C20Nod1 cells (FIG. 5C)
Myc-NOD1 (human) = Myc-NOD1 (human) (UniProt Q9Y239); assay: cell-based or functional assay
[6] = target: endogenous NOD1 protein of parental MCF-7 cells (human) (UniProt Q9Y239); assay: cell-based or functional assay
[7] = target: human Nod1 stably expressed in cell lines (human) (UniProt Q9Y239); assay: cell-based or functional assay
SK-BR3 = assay: Apoptosis by PI staining, SK-BR3 cells stably expressing Nod1; type: cell-based, human; details: SKBR3 cells; αTriDAP substituted for γTriDAP, with TNFα and cycloheximide (FIG. 9B)
Method: as §1
To determine if Nod1-dependent apoptosis occurs in other human cell lines, a series of epithelial cell lines were examined where Nod1 was stably expressed to enhance sensitivity to activation of the Nod1 pathway. Cells were treated with TNFα (T) and γTriDAP (γ) in the presence or absence of CHX (C) and monitored for viability by PI staining as a measure of apoptosis (Table 1).

[8] = agent alone, wild type cells (FIG. 2A)

CC(=O)N[C@H]1C(O)O[C@H](CO)[C@@H](O)[C@@H]1O[C@H](C)C(=O)N[C@@H](C)C(=O)N[C@H](CCC(=O)O)C(N)=O (mixture of isomers) [MDP, muramyl dipeptide]
apoptosis (MCF-7 Nod2 cells [1]): did not undergo increased apoptosis
IL-8 secretion (MCF-7 Nod2 cells [2]): did result in IL-8 secretion
apoptosis (MCF-7 RIP2 KD cells): effective at inducing high levels of apoptosis

COC(=O)CC(NC(=O)OC(C)(C)C)C(=O)CF [Boc-D-FMK]
effect on γTriDAP-induced cell death (MCF-7 Nod1 cells): abrogated

CC[C@@]1(O)C(=O)OCc2c1cc1n(c2=O)Cc2cc3ccccc3nc2-1 [camptothecin]
sensitivity to cell death (MCF-7 cells): equally sensitive

C[C@@H]1C[C@@H]([C@H](O)CC2CC(=O)NC(=O)C2)C(=O)[C@@H](C)C1 [cycloheximide]
cell death (MCF-7 cells; [8]): No cell death

COc1cccc2c1C(=O)c1c(O)c3c(c(O)c1C2=O)C[C@@](O)(C(=O)CO)C[C@@H]3O[C@H]1C[C@H](N)[C@H](O)[C@H](C)O1 [doxirubicin]
sensitivity to cell death (MCF-7 cells): equally sensitive

CC/C(=C(\c1ccccc1)c1ccc(OCCN(C)C)cc1)c1ccccc1 [tamoxifen, reference compound]
effect on γTriDAP-induced cell death (MCF-7 cells; tamoxifen prior to γTriDAP/CHX, MCF-7 cell lines (FIG. 12B)): partially blocked
effect on estrogen-induced proliferation (MCF-7 C20 cells [3]): blocked

COC(=O)C[C@H](NC(=O)[C@H](C)NC(=O)[C@@H](NC(=O)OCc1ccccc1)C(C)C)C(=O)CF [z-VAD-FMK] (Cbz-Val-Ala-Asp(OMe)-CH2F)
effect on γTriDAP-induced cell death (MCF-7 Nod1 cells): abrogated
effect on γTriDAP-induced apoptosis (MCF-7 Nod1 cells): blocked γTriDAP-induced apoptosis nearly completely

D-Ala-L-Glu-Diaminopimelic acid ([dA]-Glu-[Diaminopimelic acid]; also: Glu gamma-carboxyl linked to DAP (γTriDAP))
cell death (MCF-7 cells; [8]): No cell death
cell death (MCF-7 cells; γTriDAP in the presence of cycloheximide, wild-type MCF-7, PI staining, flow cytometry (FIG. 2A)): about 25%
apoptosis (MCF-7 C20 cells [4]; γTriDAP plus cycloheximide, MCF-7C20 without Nod1 expression): totally resistant
cell death (MCF-7 Nod1 cells; combination of cycloheximide and γTriDAP, 48 h treatment, MCF-7Nod1 cells): ~60%
γTriDAP-induced apoptosis (MCF-7 C20/Nod1 cells; with steroids): 80%
γTriDAP-induced apoptosis (MCF-7 C20/Nod1 cells; without steroids (charcoal-treated serum)): 10%
proteolytic cleavage of PARP and capases 6, 7, 8 and 9 [5]: resulted in proteolytic cleavage
phosphorylation of JNK (JNK): induced phosphorylation of JNK
γTriDAP-induced IL-8 production (MCF-7C20 cells): inhibited
γTriDAP-induced IL-8 production (MCF7-C20Nod1 cells): restored

D-Ala-L-Glu-Diaminopimelic acid (γTriDAP) (peptide)
cell death by propidium iodide staining and flow cytometry; MCF-7Nod1 cells, γTriDAP with cycloheximide, 48 h (Myc-NOD1 (human)): 60%
cell death by propidium iodide staining and flow cytometry; wild-type MCF-7 cells, γTriDAP with cycloheximide [6]: 25%
γTriDAP-induced apoptosis; C20/Nod1 cells cultured with steroids [7]: 80%
γTriDAP-induced apoptosis; C20/Nod1 cells cultured without steroids [7]: 10%

IETD
effect on γTriDAP-induced apoptosis (MCF-7 Nod1 cells): marked inhibitory effects

TNFα
TNFα-induced apoptosis (MCF-7 C20 cells [4]; MCF-7 C20 versus parent MCF-7 cells, TNF 0-40 ng/ml, 20 h (FIG. 1C)): significantly more resistant

αTriDAP: inactive control tri-peptide where mesoDAP was bound to Glu in the a position rather than in the γ position (Ala-Glu-[mesoDAP]; not fully specified (residue 1); also: DAP bound to Glu alpha-carboxyl (αTriDAP))
cell death (MCF-7 cells; incubated with MCF-7 cells in the presence of cycloheximide (FIG. 2A)): did not induce cell death
proteolytic cleavage of PARP and capases 6, 7, 8 and 9 [5]: not
apoptosis (SK-BR3): reduced apoptosis
